From PubChem BioAssay (NCI)
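48-hour exposure; five concentrations; linearly interpolated endpoints. TGI: concentration producing complete growth inhibition.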

Tests used:
Assay in all cases: DTP human tumour cell line panel, 48 h
A549 NSCLC = system: A549 NSCLC
ACHN renal = system: ACHN renal
BT-549 breast = system: BT-549 breast
CAKI-1 renal = system: CAKI-1 renal
HCC-2998 colon = system: HCC-2998 colon
HOP-62 NSCLC = system: HOP-62 NSCLC
KM12 colon = system: KM12 colon
M14 melanoma = system: M14 melanoma
MCF7 breast = system: MCF7 breast
OVCAR-4 ovarian = system: OVCAR-4 ovarian
RXF 393 renal = system: RXF 393 renal

Compound	TGI (A549 NSCLC) [µM]	TGI (ACHN renal) [µM]	TGI (BT-549 breast) [µM]	TGI (CAKI-1 renal) [µM]	TGI (HCC-2998 colon) [µM]	TGI (HOP-62 NSCLC) [µM]	TGI (KM12 colon) [µM]	TGI (M14 melanoma) [µM]	TGI (MCF7 breast) [µM]	TGI (OVCAR-4 ovarian) [µM]	TGI (RXF 393 renal) [µM]
CC(=O)OC1=C(c2ccccc2)S(=O)(=O)c2ccccc21	> 100	> 100	> 100	> 100	> 100	> 100	> 100	> 100	> 100	> 100	> 100
CN(C)CCCCN1c2ccccc2Sc2ccc(N=[N+]=[N-])cc21	22.6	12.3	24.5	18.4	3.18	25.1	8.76	3.06	5.26	19.3	16.1
NS(=O)(=O)c1ccc(NNc2c3ccccc3nc3c(C(=O)Nc4ccc(S(N)(=O)=O)cc4)cccc23)cc1	> 100	> 100	54.7	> 100	86.7	> 100	> 100	> 100	> 100	75.1	64.5
Nc1nc(NCc2ccccc2)cc(NCc2ccccc2)n1	92	28.1	23.5	9.74	24.6	41.7	27.9	39.5	6.36	28.3	26.6
N#CC(C#N)=CNC(=S)Nc1ccc(S(=O)(=O)Nc2nccs2)cc1	> 100	> 100	> 100	> 100	> 100	> 100	> 100	> 100	> 100	> 100	> 100
C=C1C(=O)O[C@H]2[C@@H]3O[C@@](C)(CC/C=C(\C)CCC[C@@H]2C)[C@H](O)C[C@@H]13	24.9	6.25	8.1	4.53	31.6	23.1	26.2	5.86	15.6	34.8	84.3
O=c1oc2cc(O)ccc2c(O)c1C(c1ccc(/C=C/c2ccccc2)cc1)c1c(O)c2ccc(O)cc2oc1=O	> 100	> 100	> 100	> 100	> 100	> 100	> 100	> 100	> 100	> 100	> 100
COc1cc(CCNC2=CC(=O)c3ncccc3C2=O)ccc1O	6.44	29	2.99	12	16.8	9.5	24.9	3.05	6.06	12.1	18
CC(=O)Nc1ccc2c3c(cc(O)c2c1)N(C(=O)CCCCCCC(=O)Nc1ccc2c4c(cc(O)c2c1)N(C(=O)OC(C)(C)C)CC4CCl)CC3CCl (centres undefined)	> 32.3	0.465	0.979	17.2	0.238	3.45	0.804	0.374	0.739	3.98	0.0392
COc1nc2c(c(=O)[nH]1)N=C(c1ccc([N+](=O)[O-])cc1)CC(c1ccccc1)N2 (centres undefined)	> 100	> 100	> 100	> 100	> 100	> 100	> 100	> 100	> 100	> 100	> 100
Cc1ccc(Nc2nc3ccccc3nc2NS(=O)(=O)c2ccc(N)cc2)cc1	> 100	> 100	> 100	> 100	6.55	> 100	94.3	> 100	> 100	71	> 100
COc1ccccc1Nc1nc(N)nc(N)c1N	> 100	> 100	> 100	> 100	> 100	> 100	> 100	> 100	> 100	> 100	> 100
CCOC(=O)c1c2ccccc2n2c(=O)n(-c3ccccc3)nnc12	> 100	> 100	> 100	> 100	> 100	> 100	> 100	> 100	> 100	> 100	> 100
COc1ccc(CC(COS(=O)(=O)c2ccc(C)cc2)NS(=O)(=O)c2ccc(C)cc2)cc1 (centres undefined)	> 62.2	49.2	23.7	> 60.8	29.5	41.2	> 77	29.6	> 69.7	41.9	17.1
COc1cc(Nc2nc(NS(=O)(=O)c3cc(C)c(Cl)cc3S)n[nH]2)cc(OC)c1OC	> 100	> 100	> 100	> 100	> 100	> 100	> 100	> 100	> 100	> 100	> 100
COC(=O)c1nc2n(n1)-c1ccccc1C(=O)N(Cc1ccccc1)C2	> 100	> 100	> 100	> 100	> 100	> 100	> 100	> 100	> 100	> 100	> 100
CCOC(=O)c1cn2c(n1)sc1cc([N+](=O)[O-])ccc12	> 100	> 100	> 100	> 100	> 100	> 100	> 100	> 100	> 100	> 100	> 100
C[C@H]1CC(=O)C[C@@H]2CC[C@@H]3[C@H](CC[C@]4(C)C(OC(=O)c5cccc6c(=O)c7ccccc7[nH]c56)CC[C@@H]34)[C@]21C (some centres undefined)	> 100	> 100	> 100	86	> 100	> 100	> 100	> 100	> 100	> 100	> 100

Compound	TGI (A549 NSCLC) [µM]	TGI (ACHN renal) [µM]	TGI (BT-549 breast) [µM]	TGI (CAKI-1 renal) [µM]	TGI (HCC-2998 colon) [µM]	TGI (HOP-62 NSCLC) [µM]	TGI (KM12 colon) [µM]	TGI (M14 melanoma) [µM]	TGI (MCF7 breast) [µM]	TGI (OVCAR-4 ovarian) [µM]	TGI (RXF 393 renal) [µM]
CCOC(=O)n1c(=O)nc2c3c(ncn21)Oc1c(c(-c2ccccc2)nn1-c1ccccc1)C3c1ccc(Cl)cc1 (centres undefined)	3.01	3.09	2.95	2.96	1.97	3.15	2.89	3.33	2.9	2.47	2.91
COCc1nc(C#N)c(N)o1	> 10	> 10	> 10	> 10	> 10	> 10	> 10	> 10	> 10	> 10	> 10
CN(C)CCC(C#N)(c1ccccc1)c1ccccc1	> 100	> 100	> 100	> 100	34.1	> 100	> 100	50	> 100	> 100	> 100
Cc1c(CNc2ccc(Cl)c(Cl)c2Cl)cnc2nc(N)nc(N)c12	> 41.3	> 48.8	50.8	> 100	> 100	> 43.5	> 100	> 100	> 46.7	31.1	> 55.5
CC(C)c1cc(C(C)C)c(S(=O)(=O)N/N=C2\CC3CCC2(C)C3(C)C)c(C(C)C)c1 (centres undefined)	> 100	> 100	> 100	> 100	> 100	> 100	> 100	> 100	30.7	> 100	58.5
COC1=C(OC)C(=O)c2cc(C)c(=O)c(C)cc2C1=O	38	31.1	28.5	31.7	55.1	36.6	36.6	30.8	36.4	7.64	29.4
COc1cccc(O)c1-c1cc(=O)c2c(O)c(OC)c(OC)c(OC)c2o1	> 100	> 100	73.6	> 100	25.4	44.4	77.8	68.4	77.7	> 100	42.9
COc1cc(N(CCC#N)CCC#N)ccc1/C(N=Nc1cccc([N+](=O)[O-])c1)=N\NC(=O)c1ccc(C)cc1	> 100	> 100	> 100	> 100	> 100	> 100	> 100	> 100	> 100	> 100	> 100
COc1cc(OC)cc(Oc2nc3ccc(C(F)(F)F)cc3nc2-c2ccccc2)c1	> 100	> 100	> 100	> 100	> 100	> 100	> 100	–	> 100	> 100	> 100
CC(=O)C1=C(C)N2C(=NC3=C(CCc4ccccc43)C2c2ccc(Cl)cc2)S1 (centres undefined)	> 100	> 100	> 100	> 100	> 100	> 100	> 100	> 100	> 100	> 100	> 100
FC(F)(F)c1ccc2c(c1)nc(Cc1ccc(Cl)cc1)n2CC1CCCN2CCCCC12 (centres undefined)	25.1	23.6	23.7	30.4	10.5	27.7	21.4	4.91	21.8	36.1	22
O=C1C(CN2CCCC2)CCC1CN1CCCC1 (centres undefined)	> 100	29.3	31.8	24.6	> 100	> 100	> 100	29.7	39.3	48.7	37.2
COc1ccc(Cc2nc3cc(C(F)(F)F)ccc3n2C[C@@H]2CCCN3CCCCC23)cc1 (some centres undefined)	24.7	22.5	28.5	25.6	5.94	23.2	27.4	7.14	26.2	25.1	22.3
CC(C)CCNC(=O)c1ccc(CNC(=O)/C=C/c2ccc3c(c2)-c2ccccc2C3)cc1	> 100	> 100	> 100	78.9	> 100	44.8	> 100	> 100	> 100	80.1	82.6
Cn1c2ccccc2n2c3ccccc3c3nnc(N)c-3c12	> 100	> 100	13.8	> 100	> 100	> 86.5	> 100	> 100	> 74.7	> 100	> 87.6
O=C(O)CN1CCN2CCOCCN(CC1)CCN(CC(=O)O)CC2	> 100	> 100	> 100	> 100	> 100	> 100	> 100	> 100	> 100	> 100	> 100
COC(=O)[C@]1(CCC(C)=O)C(=O)C=CN([C@H](C)c2ccccc2)[C@@H]1Cc1ccc(OC)c(OCc2ccccc2)c1I	73.5	71.8	46.3	> 100	29.2	51.7	43.1	28.2	46.2	> 100	23.6
